Measurements published in ChEMBL document CHEMBL3856230, “Structure-Activity Relationships of Di-2-pyridylketone, 2-Benzoylpyridine, and 2-Acetylpyridine Thiosemicarbazones for Overcoming Pgp-Mediated Drug Resistance” (J Med Chem, 2016).
Activity calls are given as the source filed them. No cut-off for these calls is given here.

Tests used:
KBV1 [1] = test: Induction of P-gp-mediated lysosomal membrane permeabilization in human KBV1 cells over expressing P-gp assessed as increase in LAMP2 fluorescence at 10 uM after 24 hrs by TexasRed staining based immunofluorescence microscopic analysis; assay type: cell-based
KBV1 [2] = test: Induction of P-gp-mediated lysosomal membrane permeabilization in human KBV1 cells over expressing P-gp assessed as cathepsin D release from lysosome to cytosol at 10 uM after 24 hrs by TexasRed staining based immunofluorescence microscopic analysis; assay type: cell-based
KB 3-1 [3] = test: (§1) Antiproliferative activity against human KB3-1 cells after 24 hrs in presence of P-gp inhibitor elacridar by MTT assay; assay type: functional, cell-based
KB-V1 [4] = test: Induction of oxidative stress-dependent lysosomal membrane permeabilization in human KBV1 cells over expressing P-gp assessed as decrease in cathepsin D and LAMP2 lysosomal colocalization at 10 uM after 24 hrs by TexasRed staining based immunofluorescence microscopic analysis; assay type: functional, cell-based
KB 3-1 [5] = test: (§2) Antiproliferative activity against human KB3-1 cells after 24 hrs by MTT assay; assay type: functional, cell-based
Homo sapiens [6] = species on record: Homo sapiens; test: Substrate activity at P-gp (unknown origin) in P-gp enriched membranes assessed as increase in ATPase activity at 50 uM in presence of Mg2-ATP after 40 mins by luciferase reporter gen assay relative to control; assay type: cell membranes
KB-V1 [7] = test: Induction of copper-dependent lysosomal membrane permeabilization in human KBV1 cells over expressing P-gp assessed as decrease in cathepsin D and LAMP2 lysosomal colocalization at 10 uM after 24 hrs by TexasRed staining based immunofluorescence microscopic analysis; assay type: functional, cell-based
KB-V1 [8] = test: Induction of oxidative stress-dependent lysosomal membrane permeabilization in human KBV1 cells over expressing P-gp assessed as decrease in cathepsin D and LAMP2 lysosomal colocalization at 25 uM after 24 hrs by TexasRed staining based immunofluorescence microscopic analysis; assay type: functional, cell-based
KBV1 [9] = test: Induction of P-gp-mediated lysosomal membrane permeabilization in human KBV1 cells over expressing P-gp assessed as cathepsin D release from lysosome to cytosol at 25 uM after 24 hrs by TexasRed staining based immunofluorescence microscopic analysis; assay type: cell-based
[10] = Selectivity ratio of IC50 for human KB31 cells to IC50 for human KBV1 cells over expressing P-gp; assay type: functional
KBV1 [11] = test: Induction of P-gp-mediated lysosomal membrane permeabilization in human KBV1 cells over expressing P-gp assessed as increase in LAMP2 fluorescence at 25 uM after 24 hrs by TexasRed staining based immunofluorescence microscopic analysis; assay type: cell-based
KB-V1 [12] = test: Induction of copper-dependent lysosomal membrane permeabilization in human KBV1 cells over expressing P-gp assessed as decrease in cathepsin D and LAMP2 lysosomal colocalization at 25 uM after 24 hrs by TexasRed staining based immunofluorescence microscopic analysis; assay type: functional, cell-based
Homo sapiens [13] = species on record: Homo sapiens; test: Inhibition of P-gp (unknown origin) in P-gp enriched membranes assessed as […] at 100 uM in presence of Mg2-ATP after 40 mins by luciferase reporter gen assay relative to control; assay type: cell membranes
[14] = as §1; assay type: functional, cell-based; details: KB 3-1, 24 h
[15] = (§3) Antiproliferative activity against human KBV1 cells over expressing P-gp after 24 hrs in presence of P-gp inhibitor elacridar by MTT assay; assay type: functional, cell-based; details: KB-V1, 24 h
[16] = Antiproliferative activity against human KBV1 cells over expressing P-gp after 24 hrs by MTT assay; assay type: functional, cell-based; details: KB-V1, 24 h
[17] = as §2; assay type: functional, cell-based; details: KB 3-1, 24 h
KB-V1 [18] = test: as §3; assay type: functional, cell-based

CN(C)C(=S)NN=C(c1ccccn1)c1ccccn1
Activity (KBV1 [1]): Active | Activity (KBV1 [2]): Active | Activity (KB 3-1 [3]): Active | Activity (KB-V1 [4]): Active | Activity (KB 3-1 [5]): Active | fold change (FC) (Homo sapiens [6]): 6.6 | Activity (KB-V1 [7]): Active

CN(C)C(=S)N/N=C(/c1ccccc1)c1ccccn1
Activity (KB-V1 [8]): Active | Activity (KBV1 [9]): Active | Activity (KB 3-1 [3]): Active | Ratio IC50 [10]: 13.2 | Activity (KBV1 [11]): Active | Activity (KB 3-1 [5]): Active | fold change (FC) (Homo sapiens [6]): 7.9 | Activity (KB-V1 [12]): Active

SODIUM ORTHOVANAD
fold change (FC) (Homo sapiens [13]): 11.9

CN(C(=S)NN=C(c1ccccn1)c1ccccn1)C1CCCCC1
Activity (KB-V1 [8]): Active | Activity (KBV1 [9]): Active | Activity (KB 3-1 [3]): Active | Ratio IC50 [10]: 8.1 | Activity (KBV1 [11]): Active | Activity (KB 3-1 [5]): Active | fold change (FC) (Homo sapiens [6]): 7.4 | Activity (KB-V1 [12]): Active

NC(=S)N/N=C/c1ncccc1N [TRIAPINE]
IC50 [14]: > 800 µM | IC50 [15]: > 800 µM | IC50 [16]: > 800 µM | IC50 [17]: > 800 µM | fold change (FC) (Homo sapiens [6]): 4.6

CN(/N=C(\c1ccccc1)c1ccccn1)C(N)=S
IC50 [14]: > 800 µM | IC50 [15]: > 800 µM | IC50 [16]: > 800 µM | IC50 [17]: > 800 µM | fold change (FC) (Homo sapiens [6]): 5.2

C/C(=N/NC(=S)N(C)C)c1ccccn1
Activity (KB 3-1 [3]): Active | Ratio IC50 [10]: 2.1 | Activity (KB-V1 [18]): Active | Activity (KB 3-1 [5]): Active | fold change (FC) (Homo sapiens [6]): 5.1
